Results: patent US11753397B2, “Cereblon binders for the degradation of ikaros” (C4 Therapeutics, Inc., priority 2018, dated 2023)

Tested on: NCIH929.1 cells
Assay: Cell viability assay (CellTiter-Glo 2.0, ATP quantification)
Assay type: cell-based
Settings: NCIH929.1 cell viability, CellTiter-Glo 2.0, 96 hr incubation, top concentration 1 μM
How it was run: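 Cells seeded at 750/well in RPMI with 10% FBS and 0.05 mM 2-mercaptoethanol, exposed 96 h at 37 °C to 10-point half-log dilutions in duplicate, top 1 μM. Viability by CellTiter-Glo 2.0 ATP luminescence, with a day-0 read as cytostatic baseline (CT0).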

Row | Compound | GI50 [nM]
1 | CC(C)(C)n1cc(CNc2cccc3c2C(=O)N(C2CCC(=O)NC2=O)C3=O)cn1 (stereo not shown) [Compound 144, 4-(((1-(tert-butyl)-1H-pyrazol-4-yl)methyl)amino)-2-(2,6-dioxopiperidin-3-yl)isoindoline-1,3-dione] | < 100
2 | CC1(C(=O)N2CCC(C)(n3cc(CNc4cccc5c4C(=O)N(C4CCC(=O)NC4=O)C5=O)cn3)CC2)CCC1 (stereo not shown) [Compound 173, 2-(2,6-Dioxopiperidin-3-yl)-4-(((1-(4-methyl-1-(1-methylcyclobutane-1-carbonyl)piperidin-4-yl)-1H-pyrazol-4-yl)methyl)amino)isoindoline-1,3-dione] | < 100
3 | O=C1CCC(N2C(=O)c3cccc(NCc4cnn(C5CCN(C(=O)C6(c7ccccc7)CC6)CC5)c4)c3C2=O)C(=O)N1 (stereo not shown) [Compound 72, 2-(2,6-dioxopiperidin-3-yl)-4-(((1-(1-(1-phenylcyclopropane-1-carbonyl)piperidin-4-yl)-1H-pyrazol-4-yl)methyl)amino)isoindoline-1,3-dione] | < 100
4 | N#CC1(C(=O)N2CCC(n3cc(CNc4cccc5c4C(=O)N(C4CCC(=O)NC4=O)C5=O)cn3)CC2)CCC1 (stereo not shown) [Compound 81, 1-(4-(4-(((2-(2,6-dioxopiperidin-3-yl)-1,3-dioxoisoindolin-4-yl)amino)methyl)-1H-pyrazol-1-yl)piperidine-1-carbonyl)cyclobutane-1-carbonitrile] | < 100
5 | CC1(CN2CCC(n3cc(CNc4cccc5c4C(=O)N(C4CCC(=O)NC4=O)C5=O)cn3)CC2)CCC1 (stereo not shown) [Compound 139, 2-(2,6-Dioxo-piperidin-3-yl)-4-({1-[1-(1-methyl-cyclobutylmethyl)-piperidin-4-yl]-1H-pyrazol-4-ylmethyl}-amino)-isoindole-1,3-dione] | < 100
6 | O=C1CCC(N2C(=O)c3cccc(NCc4cnn(C5CCN(C(=O)c6ccccc6)CC5)c4)c3C2=O)C(=O)N1 (stereo not shown) [Compound 16, 4-(((1-(1-benzoylpiperidin-4-yl)-1H-pyrazol-4-yl)methyl)amino)-2-(2,6-dioxopiperidin-3-yl)isoindoline-1,3-dione] | < 100
7 | CC(C)Cn1cc(CNc2cccc3c2C(=O)N(C2CCC(=O)NC2=O)C3=O)cn1 (stereo not shown) [Compound 143, 2-(2,6-dioxopiperidin-3-yl)-4-(((1-isobutyl-1H-pyrazol-4-yl)methyl)amino)isoindoline-1,3-dione] | > 100
